# In patent publication US9714233B2, “Processes and intermediates for making a JAK inhibitor” (Incyte Corporation, priority 2013, dated 2017):
# Target: T1, human JAK1 (a.a. 837-1142) catalytic domain (Homo sapiens, UniProt P23458)
# T1 construct: human JAK1 (a.a. 837-1142); His tag (N); made in house; host or cells: insect cells (baculovirus)
# Assay: In vitro JAK kinase assay (HTRF, phosphorylation of biotinylated peptide), JAK1
# Format: biochemical
# Conditions: measured at 1 mM ATP
# Method: The compound of Formula I was tested for inhibitory activity of JAK targets according to the following in vitro assay described in Park et al., Analytical Biochemistry 1999, 269, 94-104. The catalytic domains of human JAK1 (a.a. 837-1142) and JAK2 (a.a. 828-1132) with an N-terminal His tag were expressed using baculovirus in insect cells and purified. The catalytic activity of JAK1 and JAK2 was assayed by measuring the phosphorylation of a biotinylated peptide. The phosphorylated peptide was detected by homogenous time resolved fluorescence (HTRF). IC50s of compounds were measured for each kinase in the 40 microL reactions that contain the enzyme, ATP and 500 nM peptide in 50 mM Tris (pH 7.8) buffer with 100 mM NaCl, 5 mM DTT, and 0.1 mg/mL (0.01%) BSA. For the 1 mM IC50 measurements, ATP concentration in the reactions was 1 mM. Reactions were carried out at room temperature for 1 hr and then stopped with 20 μL 45 mM EDTA, 300 nM SA-APC, 6 nM Eu-Py20 in assay buffer (Perkin Elmer, Boston, Mass.). Binding to the Europium labeled antibody took place for 40 minutes and HTRF signal was measured on a Fusion plate reader (Perkin Elmer, Boston, Mass.).
# T1 sequence (P23458 849-1154 limits assumed): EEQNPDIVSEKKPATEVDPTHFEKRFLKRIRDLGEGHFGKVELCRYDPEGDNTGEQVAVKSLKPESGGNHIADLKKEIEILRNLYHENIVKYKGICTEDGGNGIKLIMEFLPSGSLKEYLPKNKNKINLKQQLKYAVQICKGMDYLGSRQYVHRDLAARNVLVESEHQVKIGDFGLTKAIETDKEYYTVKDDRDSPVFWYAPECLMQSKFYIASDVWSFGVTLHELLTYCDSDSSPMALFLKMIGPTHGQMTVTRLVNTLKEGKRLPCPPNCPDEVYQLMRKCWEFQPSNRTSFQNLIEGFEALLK
structure (smiles),measurement,value
"N#CCC1(n2cc(-c3ncnc4[nH]ccc34)cn2)CN(C2CCN(C(=O)c3ccnc(C(F)(F)F)c3F)CC2)C1 [Formula I, {1-{1-[3-fluoro-2-(trifluoromethyl)isonicotinoyl]piperidin-4-yl}-3-[4-(7H-pyrrolo[2,3-d]pyrimidin-4-yl)-1H-pyrazol-1-yl]azetidin-3-yl}acetonitrile]",IC50,≤ 5 nM
